By IC50 is commonly meant the midpoint of a concentration-inhibition curve. A high value points to a need for much substance.

The target of the assay is T1, Tyrosine-protein kinase JAK3 [512-1124] (Homo sapiens, UniProt P52333).
T1 construct: 512-1124
T1 sequence (P52333 whole entry): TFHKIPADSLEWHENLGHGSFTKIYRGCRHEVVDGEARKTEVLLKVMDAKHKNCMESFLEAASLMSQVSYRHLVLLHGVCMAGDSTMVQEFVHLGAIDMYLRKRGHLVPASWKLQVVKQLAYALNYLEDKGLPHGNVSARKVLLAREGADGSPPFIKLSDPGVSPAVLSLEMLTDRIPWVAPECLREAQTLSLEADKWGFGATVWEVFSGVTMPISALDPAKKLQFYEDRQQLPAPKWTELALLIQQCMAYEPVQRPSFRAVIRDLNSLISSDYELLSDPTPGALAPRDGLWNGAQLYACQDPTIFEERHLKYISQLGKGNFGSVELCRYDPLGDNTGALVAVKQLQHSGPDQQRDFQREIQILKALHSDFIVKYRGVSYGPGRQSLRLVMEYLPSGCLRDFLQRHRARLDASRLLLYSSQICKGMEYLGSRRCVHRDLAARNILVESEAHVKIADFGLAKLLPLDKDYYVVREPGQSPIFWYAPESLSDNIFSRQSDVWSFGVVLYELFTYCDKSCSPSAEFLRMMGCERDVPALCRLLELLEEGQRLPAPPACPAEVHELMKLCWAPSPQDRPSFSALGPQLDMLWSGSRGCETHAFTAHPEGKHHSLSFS
Kind of assay: Enzymatic Inhibition Assay. From the text:
LC/MS grade water and acetonitrile (ACN), were purchased from HoneyWell, Burdick & Jackson (Muskegon, Mich., USA).
Consider `N#CCCNC(=O)Cc1nc2cnc3[nH]ccc3c2n1C1CCC(CC#N)CC1` (stereo unspecified) [US11066406, Ex. 4], for which the IC50 worked out at 0.0962 µM.
The figure for `N#CCC1CCC(n2c(CC(=O)NCC3(O)CC3)nc3cnc4[nH]ccc4c32)CC1` (stereo unspecified) [US11066406, Ex. 12] is 0.101 µM; for `Cn1cc(NC(=O)Cc2nc3cnc4[nH]ccc4c3n2C2CCC(CC#N)CC2)cn1` (stereo unspecified) [US11066406, Ex. 9] it is 0.0799 µM.
`CC(C)(O)CNC(=O)Cc1nc2cnc3[nH]ccc3c2n1C1CCC(CC#N)CC1` (stereo unspecified) [US11066406, Ex. 1]: the IC50 was found to be 0.0922 µM.
Turning to `N#CCC1CCC(n2c(CC(=O)NC3CCOCC3)nc3cnc4[nH]ccc4c32)CC1` (stereo unspecified) [US11066406, Ex. 5], inhibition was half-maximal at 0.0231 µM (IC50). Against the preceding molecule, the IC50 is about 4-fold lower.
Take `N#CCC1(n2c(CC(=O)NCC3CCOCC3)nc3cnc4[nH]ccc4c32)CCCCC1` [US11066406, Ex. 6]: half-maximal inhibition (IC50) required 0.0282 µM.
The figure for `N#CC[C@H]1CC[C@H](n2c(CC(=O)NCC3CC3)nc3cnc4[nH]ccc4c32)CC1` [US11066406, Ex. 3] is 0.0828 µM; for `N#CCC1CCC(n2c(CC(=O)Nc3cc[nH]n3)nc3cnc4[nH]ccc4c32)CC1` (stereo unspecified) [US11066406, Ex. 11] it is 0.0303 µM; for `N#CCC1CCC(n2c(CC(=O)NCC3(O)CCC3)nc3cnc4[nH]ccc4c32)CC1` (stereo unspecified) [US11066406, Ex. 8] it is 0.0756 µM.
`CC(C)(C#N)CNC(=O)Cc1nc2cnc3[nH]ccc3c2n1C1CCC(CC#N)CC1` (stereo unspecified) [US11066406, Ex. 7] yielded an IC50 of 0.0984 µM. This IC50 and that of the molecule before are within 1.5-fold of each other.
Turning to `N#CCC1CCC(n2c(CC(=O)NC34CCC(CC#N)(CC3)C4)nc3cnc4[nH]ccc4c32)CC1` (stereo unspecified) [US11066406, Ex. 10], the IC50 amounted to 0.0875 µM. The IC50 values of the last two molecules are within 1.5-fold of each other.

The values are drawn from BindingDB's records for patent US11066406 (Janssen Pharmaceutica, 2021).
